Literature values in patent US20260356885A1, “PROCESS FOR MANUFACTURING AN ANTIBIOTIC MACROCYCLIC PEPTIDE” (Hoffmann-La Roche Inc., priority 2022, published 2026).

Test system: Acinetobacter baumannii
Conditions: statement in words, as discussed in WO2019206853; no test or value given

## CN1C(=O)[C@H](CCCCN)NC(=O)[C@H](CCCN)NCc2cccnc2Sc2cccc(-c3ccc(C(=O)O)cc3)c2CNC(=O)[C@@H]1Cc1c[nH]c2ccccc12 [compound of formula (I), 4-[(11S,14S,17S)-14-(4-Aminobutyl)-11-(3-aminopropyl)-17-(1H-indol-3-ylmethyl)-16-methyl-12,15,18-trioxo-2-thia-4, 10, 13, 16, 19-pentazatricyclo[19.4.0.03,8]pentacosa-1 (25),3 (8), 4,6,21,23-hexaen-22-yl]benzoic acid]
  antibiotic action, selective against Acinetobacter baumannii: potent antibiotic with selective action against Acinetobacter baumannii
